From patent US20210368825A1, “FEED ADDITIVE FOR DAIRY CATTLE COMPRISING N-ACETYL-L-TRYPTOPHAN AS ACTIVE INGREDIENT” (CJ CHEILJEDANG CORPORATION, priority 2018, published 2021)
“And” between values parts separate entries of the source, which are not always exact repeats. Identical values can stand only once. “Also recorded” adds a separate entry of the source.

Experiments:
[1] = system: milking cows after calving; assay: Analysis of milk yield of dairy cattle after calving according to NALT feeding; type: in vivo, Holstein Friesian cows
Text: (§1) From among Holstein Friesian cows in the late stage of gestation corresponding to 60 days before calving, 8 cows were selected in consideration of calving time (expected calving date±15 days), the number of calving (calving number), and the like, and 4 cows were assigned to each of a control (untreated) and a treated group.
(§2) In the present disclosure, as a basal diet fed during a dry period and a milking period, total mixed ration (TMR), roughage, and concentrates were provided in accordance with NRC (2001) nutrition requirements for dry cows. In the case of the treated group, evaluation was performed by supplementing N-acetyl-L-tryptophan (NALT) to the basal diet. Newborn calves were fed with colostrum for 3 days and then fed with milk obtained during a milking process for 8 weeks.
(§3) Evaluation of feed feeding before calving by feeding N-acetyl-L-tryptophan was performed for 60±8 days (error caused by difference in expected calving dates). The control was fed with the basal diet, and the treated group was fed with the basal diet supplemented with 15 g of NALT.
Milk yield of each of the 8 milking cows used in the present disclosure was recorded at 3 a.m. and 3 p.m. every day for 8 weeks, and average milk yield was calculated after pooling them every two weeks after calving.

[2] = system: dairy cattle in dry period; design: species or system Holstein Friesian cows; conditions: in vivo
Text: as §1, §2, §3
(§4) Blood was collected from dairy cattle and calves during 6 weeks of the dry period and immediately after calving via the jugular vein before feeding a morning feed every 2 weeks for 8 weeks. The collected blood was aliquoted into a serum tube (BD Vacutainer, Plymouth, UK) and a heparin tube (Becton-Dickinson, Belliver Industrial Estate, Plymouth, PL6 7BP, UK) and centrifuged (3,500 rpm, 15 min, 20° C.) to separate plasma.
(§5) Samples for analysis of metabolic changes such as albumin, glutamic-oxalacetic transaminase (GOT), blood urea nitrogen (BUN), triglycerides (TG), cholesterol (CHO), glucose (GLU), and non-esterified fatty acid (NEFA) were aliquoted into a 1.5 mL tube (Eppendorf AG, Hamburg, Germany) in an amount of 500 μL each and stored in a deep freezer at −80° C.

[3] = system: dairy cattle after calving; design: species or system Holstein Friesian cows; conditions: in vivo
Text: as §1, §2, §3, §4, §5

[4] = system: calves born from dairy cattle; assay: Analysis of weight of calf born from dairy cattle according to NALT feeding; type: in vivo, Holstein Friesian cows (calves); conditions: for weight of calf: mother fed NALT 15 g/d in dry period
Text: as §1, §2, §3
Weights of calves born from dairy cattle used for the experiment were measured after drying the body surface immediately after calving (before feeding colostrum; using a scale, GL-6000S Series, G-Tech International Co., LTD), and then weights were measured four times in total for 8 weeks at an interval of 2 weeks (weight before feeding milk). Colostrum was obtained from mother cows and fed to calves at 3 a.m. and 3 p.m. until 3 days after calving. Then, 3.8 L of milk was provided per day, and the concentrates were available without limitation from a feed bucket separately for individual animals.

[5] = system: dry cows in the late stage of gestation; assay: Analysis of feed intake of dairy cattle according to NALT feeding; type: in vivo, Holstein Friesian cows; conditions: for feed intake: basal diet supplemented with NALT (15 g/d)
Text: as §1, §2, §3
An amount of the feed left over was recorded for each cow at 9 a.m. every morning to measure a daily feed intake.

[6] = system: dairy cattle in dry period; assay: Change in hematological properties of dairy cattle in dry period according to NALT feeding; type: in vivo, Holstein Friesian cows
Text: as §1, §2, §3, §4
(§6) Blood samples for analysis of changes in hematological properties such as white blood cells (WBC), lymphocytes, monocytes, granulocytes, mean corpuscular volume, mean corpuscular hemoglobin, and platelets were aliquoted into an ethylenediaminetetraacetic acid (EDTA)-treated vacutainer (Becton-Dickinson, Franklin Lakes, N.J., USA) and analyzed using a VetScan HM2 Hematology System (ABAXIS, Calif., USA).

[7] = system: calves born from dairy cattle; assay: Change in hematological properties of calves born from dairy cattle according to NALT feeding; type: in vivo, Holstein Friesian cows (calves)
Text: as §1, §2, §3, §4, §6

[8] = calves born from NALT-treated dairy cattle

Albumin [2]: 3.93 g/dL
Albumin, total AVG [2]: 3.74 g/dL
BUN [2]: 12.25 mg/dL
BUN, total AVG [2]: 9.88 mg/dL
CHO [2]: 194.00 mg/dL
CHO, total AVG [2]: 143.08 mg/dL
GLU [2]: 50.00 mg/dL
GLU, total AVG [2]: 50.52 mg/dL
GOT [2]: 82.50 U/L
GOT, total AVG [2]: 80.92 U/L
TG [2]: 16.25 mg/dL
TG, total AVG [2]: 19.88 mg/dL
effect on metabolic changes of dairy cattle compared with control [2]: did not significantly affect
Albumin [3]: 3.73 g/dL
Albumin, total AVG [3]: 4.01 g/dL
BUN [3]: 10.75 mg/dL
BUN, total AVG [3]: 16.75 mg/dL
CHO [3]: 101.25 mg/dL
CHO, total AVG [3]: 188.45 mg/dL
GLU [3]: 83.75 mg/dL
GLU, total AVG [3]: 68.35 mg/dL
GOT [3]: 87.00 U/L
GOT, total AVG [3]: 89.65 U/L
TG [3]: 8.00 mg/dL
TG, total AVG [3]: 9.45 mg/dL
effect on metabolic changes of dairy cattle compared with control [3]: did not significantly affect
Monocyte ([6]; dry period, 0 wk, reference 0-0.84): 0.48 K/uL
Granulocyte ([6]; dry period, 0 wk, reference 0.6-6.7): 3.89 K/uL
Lymphocyte ([6]; dry period, 0 wk, reference 2.5-7.5): 7.68 K/uL
WBC ([6]; dry period, 0 wk, reference 4-12): 10.45 K/uL
MCH ([6]; dry period, 0 wk, reference 11-17): 16.01 pg
MCV ([6]; dry period, 0 wk, reference 40-60): 46.75 fL
Platelet ([6]; dry period, 0 wk, reference 100-800): 297.67 K/ul
Monocyte, total AVG ([6]; dry period, average 0 to 6 weeks, reference 0-0.84): 0.74 K/uL
Granulocyte, total AVG ([6]; dry period, average 0 to 6 weeks, reference 0.6-6.7): 3.29 K/uL
Lymphocyte, total AVG ([6]; dry period, average 0 to 6 weeks, reference 2.5-7.5): 7.88 K/uL
WBC, total AVG ([6]; dry period, average 0 to 6 weeks, reference 4-12): 11.91 K/uL
MCH, total AVG ([6]; dry period, average 0 to 6 weeks, reference 11-17): 16.74 pg
MCV, total AVG ([6]; dry period, average 0 to 6 weeks, reference 40-60): 47.54 fL
Platelet, total AVG ([6]; dry period, average 0 to 6 weeks, reference 100-800): 331.35 K/ul
effect on hematological properties of dairy cattle compared with control ([6]; during the dry period): did not significantly affect
Compound: CC(=O)N[C@@H](Cc1c[nH]c2ccccc12)C(=O)O [NALT, N-acetyl-L-tryptophan]
Milk yield ([1]; 0 wk (immediately after calving)): 24.03 kg
increase in average milk yield compared with control ([1]; 8 weeks after calving): ≥ 4 kg
Milk yield, total AVG ([1]; average over 8 weeks after calving): 35.44 kg
weight of calf, Increment ([4]; 0 to 8 wk): 28.28 kg
weight of calf ([4]; 0 wk (birth weight)): 41.43 kg
weight of calf ([4]; 2 wk after birth): 46.05 kg
weight of calf ([4]; 4 wk after birth): 52.75 kg
weight of calf ([4]; 6 wk after birth): 60.95 kg
weight of calf ([4]; 8 wk after birth): 69.70 kg
weight of calf, total AVG ([4]; average 0 to 8 wk): 54.18 kg
birth weight of calves greater than control ([4]; week 0, on average): 5.47 kg and 5.53 kg
average weight of calves greater than control ([4]; week 2): 5.1 kg
average weight of calves greater than control ([4]; week 4): 4.67 kg
average weight of calves greater than control ([4]; week 6): 4.22 kg
average weight of calves greater than control ([4]; week 8): 5.9 kg
average weight of calves greater than control ([4]; weeks 2, 4, 6 and 8 overall): about 5 kg
overall feed intake compared with control ([5]; 6 weeks of dry period): numerical increase; also recorded: numerically increased
feed intake ([5]; week 0 of dry period): 6.63 kg
feed intake ([5]; week 1 of dry period): 6.85 kg
feed intake compared with control ([5]; week 2, p<0.05): statistically significant increase
feed intake ([5]; week 2 of dry period): 7.73 kg
feed intake ([5]; week 3 of dry period): 7.62 kg
increase in feed intake compared with control ([5]; week 4, control 6.46 kg): 1.43 kg
feed intake ([5]; week 4 of dry period): 7.69 kg
feed intake ([5]; week 5 of dry period): 7.63 kg
initial index of mean corpuscular hemoglobin (MCH) of newborn calves compared with control [7, 8]: statistically significant difference
initial index of mean corpuscular volume (MCV) of newborn calves compared with control [7, 8]: statistically significant difference
monocyte index of newborn calves compared with control [7, 8]: significant differences
Monocyte ([7]; calves, 0 wk, reference 0-0.84): 0.32 K/uL
Granulocyte ([7]; calves, 0 wk, reference 0.6-6.7): 9.68 K/uL
Lymphocyte ([7]; calves, 0 wk, reference 2.5-7.5): 3.72 K/uL
WBC ([7]; calves, 0 wk, reference 4-12): 13.72 K/uL
MCH ([7]; calves, 0 wk, reference 11-17, P 0.056): 12.95 pg
MCV ([7]; calves, 0 wk, reference 40-60, P 0.027): 39.00 fL
Platelet ([7]; calves, 0 wk, reference 100-800): 512.75 K/ul
Monocyte, total AVG ([7]; calves, average 0 to 8 weeks, reference 0-0.84, P 0.031): 0.53 K/uL
Granulocyte, total AVG ([7]; calves, average 0 to 8 weeks, reference 0.6-6.7): 4.69 K/uL
Lymphocyte, total AVG ([7]; calves, average 0 to 8 weeks, reference 2.5-7.5): 6.93 K/uL
WBC, total AVG ([7]; calves, average 0 to 8 weeks, reference 4-12): 12.14 K/uL
MCH, total AVG ([7]; calves, average 0 to 8 weeks, reference 11-17): 11.20 pg
MCV, total AVG ([7]; calves, average 0 to 8 weeks, reference 40-60): 31.80 fL
Platelet, total AVG ([7]; calves, average 0 to 8 weeks, reference 100-800): 584.35 K/ul
immune response of the calves born from dairy cattle ([7]; conclusion drawn from hematology of calves): positive effects
